Measured values from EP1147080B1 (Wyeth Holdings Corporation, priority 1999, dated 2000).

Target: TNF-α converting enzyme (TACE) (Homo sapiens, UniProt P78536)
Test: Test procedure for measuring TACE inhibition (fluorescent peptidyl substrate)
Type: biochemical
Details: Table 1

TNF-α converting enzyme (TACE), sequence (P78536 215-824): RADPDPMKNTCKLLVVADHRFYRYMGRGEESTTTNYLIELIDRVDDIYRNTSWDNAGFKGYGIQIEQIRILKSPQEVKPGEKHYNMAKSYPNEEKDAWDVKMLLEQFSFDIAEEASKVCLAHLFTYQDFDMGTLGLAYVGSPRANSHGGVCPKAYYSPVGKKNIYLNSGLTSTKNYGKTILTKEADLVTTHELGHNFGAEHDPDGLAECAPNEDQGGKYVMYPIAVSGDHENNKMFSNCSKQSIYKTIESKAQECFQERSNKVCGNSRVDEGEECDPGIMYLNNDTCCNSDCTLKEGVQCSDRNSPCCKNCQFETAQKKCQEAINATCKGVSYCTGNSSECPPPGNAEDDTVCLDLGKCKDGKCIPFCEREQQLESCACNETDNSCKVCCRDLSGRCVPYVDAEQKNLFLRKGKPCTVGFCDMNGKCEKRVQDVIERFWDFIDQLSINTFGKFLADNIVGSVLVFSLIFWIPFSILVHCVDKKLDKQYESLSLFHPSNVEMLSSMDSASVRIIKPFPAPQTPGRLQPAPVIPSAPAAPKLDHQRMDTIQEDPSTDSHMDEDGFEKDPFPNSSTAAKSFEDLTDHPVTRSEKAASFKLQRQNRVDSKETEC

Molecule | IC50 [nM]
CC#CCOc1ccc(S(=O)(=O)C(CCCCNC(=O)CN2C(=O)c3ccccc3C2=O)C(=O)NO)cc1 (stereo not drawn) [Example 36, 2-(4-But-2-ynyloxy-benzenesulfonyl)-6-[2-(1,3-dioxo-1,3-dihydro-isoindol-2-yl)-acetylamino]-hexanoic acid hydroxyamide] | 16.8
CC#CCOc1ccc(SC(CCCCNC(=O)C(c2ccccc2)c2ccccc2)C(=O)NO)cc1 (stereo not drawn) [Example 20, 2-(4-But-2-ynyloxy-phenylsulfanyl)-6-diphenylacetylamino-hexanoic acid hydroxyamide] | 88.6
CC#CCOc1ccc(S(=O)(=O)C(CCCCNC(=O)c2nccc3ccccc23)C(=O)NO)cc1 (stereo not drawn) [Example 41, Isoquinoline-1-carboxylic acid [5-(4-but-2-ynyloxy-benzenesulfonyl)-5-hydroxycarbamoyl-pentyl]-amide] | 37.3
CC#CCOc1ccc(SC(CCCCNC(=O)c2nccc3ccccc23)C(=O)NO)cc1 (stereo not drawn) [Example 21, Isoquinoline-1-carboxylic acid [5-(4-but-2-ynyloxy-phenylsulfanyl)-5-hydroxycarbamoylpentyl]-amide] | 20.1
CC#CCOc1ccc(S(=O)(=O)C(CCCCNC(=O)c2cnc3ccccc3c2)C(=O)NO)cc1 (stereo not drawn) [Example 38, Quinoline-3-carboxylic acid [5-(4-but-2-ynyloxy-benzenesulfonyl)-5-hydroxycarbamoylpentyl]-amide] | 39.9
CC#CCOc1ccc(SC(CCCCNC(=O)C2c3ccccc3Oc3ccccc32)C(=O)NO)cc1 (stereo not drawn) [Example 19, 9H-Xanthene-9-carboxylic acid [5-(4-but-2-ynyloxy-phenylsulfanyl)-5-hydroxycarbamoylpentyl]-amide] | 43.3
CC#CCOc1ccc([S+]([O-])C(CCCCNC(=O)c2cnc3ccccc3c2)C(=O)NO)cc1 (stereo not drawn) [Example 27, Quinoline-3-carboxylic acid [5-(4-but-2-ynyloxy-benzenesulfinyl)-5-hydroxycarbamoylpentyl]-amide] | 46.3
CC#CCOc1ccc([S+]([O-])C(CCCCNC(=O)Cc2c[nH]c3ccccc23)C(=O)NO)cc1 (stereo not drawn) [Example 33, 2-(4-But-2-ynyloxy-benzenesulfinyl)-6-(2-1H-indol-3-yl-acetylamino)-hexanoic acid hydroxyamide] | 35.6
CC#CCOc1ccc(SC(CCCCNC(=O)c2ccccc2CCc2ccccc2)C(=O)NO)cc1 (stereo not drawn) [Example 15, N-[5-(4-But-2-ynyloxy-phenylsulfanyl)-5-hydroxycarbamoyl-pentyl]-2-phenethylbenzamide] | 138
CC#CCOc1ccc([S+]([O-])C(CCCCNC(=O)CCCc2cccs2)C(=O)NO)cc1 (stereo not drawn) [Example 28, 2-(4-But-2-ynyloxy-benzenesulfinyl)-6-(4-thiophen-2-yl-butyrylamino)-hexanoic acid hydroxyamide] | 26.6
CC#CCOc1ccc(SC(CCCCNC(=O)c2ccc3ccccc3n2)C(=O)NO)cc1 (stereo not drawn) [Example 14, Quinoline-2-carboxylic acid [5-(4-but-2-ynyloxy-phenylsulfanyl)-5-hydroxycarbamoylpentyl]-amide] | 62.9
CC#CCOc1ccc([S+]([O-])C(CCCCNC(=O)c2ccccc2CCc2ccccc2)C(=O)NO)cc1 (stereo not drawn) [Example 25, N-[5-(4-But-2-ynyloxy-benzenesulfinyl)-5-hydroxycarbamoyl-pentyl]-2-phenethylbenzamide] | 43.5
CC#CCOc1ccc([S+]([O-])C(CCCCNC(=O)CN2C(=O)c3ccccc3C2=O)C(=O)NO)cc1 (stereo not drawn) [Example 24, 2-(4-But-2-ynyloxy-benzenesulfinyl)-6-[2-(1,3-dioxo-1,3-dihydro-isoindol-2-yl)-acetylamino]-hexanoic acid hydroxyamide] | 30
CC#CCOc1ccc(S(=O)(=O)C(CCCCNC(=O)C(c2ccccc2)c2ccccc2)C(=O)NO)cc1 (stereo not drawn) [Example 40, 2-(4-But-2-ynyloxy-benzenesulfonyl)-6-diphenylacetylamino-hexanoic acid hydroxyamide] | 59.1

Next, values leading:

IC50 [nM] | Molecule
40.9 | 2-(4-But-2-ynyloxy-benzenesulfinyl)-6-diphenylacetylamino-hexanoic acid hydroxyamide [Example 60]
18.9 | CC#CCOc1ccc(SC(CCCCNC(=O)CNC(=O)c2cnc3ccccc3c2)C(=O)NO)cc1 (stereo not drawn) [Example 47, Quinoline-3-carboxylic acid {[5-(4-but-2-ynyloxy-phenylsulfanyl)-5-hydroxycarbamoyl-pentylcarbamoyl]-methyl}-amide]
16.1 | CC#CCOc1ccc(S(=O)(=O)C(CCCCNC(=O)CNC(=O)CN2C(=O)c3ccccc3C2=O)C(=O)NO)cc1 (stereo not drawn) [Example 63, 2-(4-But-2-ynyloxy-benzenesulfonyl)-6-{2-[2-(1,3-dioxo-1,3-dihydro-isoindol-2-yl)-acetyl-amino]-acetylamino}-hexanoic acid hydroxyamide]
31.9 | CC#CCOc1ccc(S(=O)(=O)C(CCCCNC(=O)CNC(=O)C(c2ccccc2)c2ccccc2)C(=O)NO)cc1 (stereo not drawn) [Example 62, 2-(4-But-2-ynyloxy-benzenesulfonyl)-6-(2-diphenylacetylamino-acetylamino)-hexanoic acid hydroxyamide]
29.2 | CC#CCOc1ccc(S(=O)(=O)C(CCCCNC(=O)CNC(=O)Cc2csc3ccccc23)C(=O)NO)cc1 (stereo not drawn) [Example 69]
53.8 | CC#CCOc1ccc(SC(CCCCNC(=O)CNC(=O)C(c2ccccc2)c2ccccc2)C(=O)NO)cc1 (stereo not drawn) [Example 49, 2-(4-But-2-ynyloxy-phenylsulfanyl)-6-(2-diphenylacetylamino-acetylamino)-hexanoic acid hydroxyamide]
21.2 | CC#CCOc1ccc(S(=O)(=O)C(CCCCNC(=O)CNC(=O)c2nccc3ccccc23)C(=O)NO)cc1 (stereo not drawn) [Example 68, Isoquinoline-1-carboxylic acid {[5-(4-but-2-ynyloxy-benzenesulfonyl)-5-hydroxycarbamoyl-pentylcarbamoyl]-methyl}-amide]
38.5 | CC#CCOc1ccc([S+]([O-])C(CCCCNC(=O)CNC(=O)CN2C(=O)c3ccccc3C2=O)C(=O)NO)cc1 (stereo not drawn) [Example 55, 2-(4-But-2-ynyloxy-benzenesulfinyl)-6-[2-(1,3-dioxo-1,3-dihydro-isoindol-2-yl)-acetylammo]-hexanoic acid hydroxyamide]
42 | CC#CCOc1ccc(S(=O)(=O)C(CCCCNC(=O)CNC(=O)c2ccccc2CCc2ccccc2)C(=O)NO)cc1 (stereo not drawn) [Example 64, N-{[5-(4-But-2-ynyloxy-benzenesulfonyl)-5-hydroxycarbamoyl-pentylcarbamoyl]-methyl}-2-phenethyl-benzamide]
35.9 | CC#CCOc1ccc(SC(CCCCNC(=O)CNC(=O)c2nccc3ccccc23)C(=O)NO)cc1 (stereo not drawn) [Example 50, Isoquinoline-1-carboxylic acid {[5-(4-but-2-ynyloxy-phenylsulfanyl)-5-hydroxycarbamoylpentylcarbamoyl]-methyl}-amide]
27.2 | CC#CCOc1ccc([S+]([O-])C(CCCCNC(=O)CNC(=O)c2ccc3ccccc3n2)C(=O)NO)cc1 (stereo not drawn) [Example 54]
34.8 | CC#CCOc1ccc(S(=O)(=O)C(CCCCNC(=O)CNC(=O)C2c3ccccc3Oc3ccccc32)C(=O)NO)cc1 (stereo not drawn) [Example 67, 9H-Xanthene-9-carboxylic acid {[5-(4-but-2-ynyloxy-benzenesulfonyl)-5-hydroxycarbamoyl-pentylcarbamoyl]-methyl}-amide]
70.2 | CC#CCOc1ccc(SC(CCCCNC(=O)CNC(=O)Cc2csc3ccccc23)C(=O)NO)cc1 (stereo not drawn) [Example 52]
